Counter-ions that a name gives are not always drawn.
Tests used:
male mice = test: Hypobare anoxia study; format: in vivo; conditions: oral, 30 minutes before test, 90 mm Hg
Procedure: Groups of 10 male mice weighing about 20 to 22 g were not fed for 5 hours and were placed in a hermetically sealed enclosure with a pressure of 90 mm Hg maintained by a pump to determine the time of their survival. […] The results of Table II show the increase of survival time expressed as a percentage of control animals.

dopaminergic receptors = biological target: T1, dopaminergic receptors (Rattus norvegicus, UniProt P61169); test: Affinity for dopaminergic receptors (inhibition of spiroperidol 3H fixation); format: binding; conditions: for fixation to dopaminergic receptors (in words): results of Table I; for IC50: spiroperidol 3H, rat striated bodies, 37° C., pH 7.3, 20 minutes, read-out: 50% inhibiting concentration
T1 construct: from tissue; host or cells: rat striatum (striated bodies), crude membrane preparation
Procedure: B. Affinity for dopaminergic receptors
The striated bodies taken from the brains of 6 male rats weighing about 150 g were homogenized at one 20th (weight/volume) in 0.32 M sucrose and the homogenized mixture was centrifuged at 1000 g for 10 minutes at 0° C., the surnageant was centrifuged at 30,000 g for 15 minutes at 4° C. The culot was taken up in 25 ml of buffered Tris HCl 50 mM with a pH of 7.7 and the mixture was centrifuged at 30,000 g for 15 minutes at 4° C. The new culot was taken up in 50 ml of buffered Krebs Tris HCl with a pH of 7.3 and the suspension was preincubated at 37° C. for 10 minutes and was then incubated for 20 minutes in a water bath at 37° C. in the presence of spiroperidol 3H, alone or with an excess of haloperidol or with increasing units of the product being tested. The incubated suspensions were filtered with Whatman GF/C and the filters were washed 3 times with 5 ml of buffered Tris HCl 50 mM. The radioactivity of the filters was measured by liquid scintillation and the curve of percentage of fixation of spiroperidol 3H as a function of concentration of test product was determined.

[1] = system: nigrostriatal dopaminergic bundle (6-hydroxydopamine unilateral lesion); test: Rotation behavior after unilateral injury of nigrostriatal bundle; format: in vivo, male rats; conditions: rats, intraperitoneal
Procedure: A. Rotation behavior after unilateral injury of nigrostriatal bundle
The unilateral lesion was effected with male rats weighing about 220 g by unilateral injection into nigrostriatal dopaminergic bundle of 8 μg of 6-hydroxydopamine in a solution of 2 μg per μl by the method of Ungerstedt [Acta. Physiol. Scand., Vol. 82 (1971), supp. 367, p. 69-93]. In the animals, the direct dopaminergic agonists such as apomorphine administered generally induces a rotating behavior in the contralateral direction to the injured side. The test compounds were administered more than 5 weeks after the lesion and the rats were placed in an automatic rotometer which determine the number of rotations effected by each animal in 2 directions.
The products of Examples 1, 2 and 3 were intraperitoneally administered and the product of Example 1 provoked 337±99 contralateral rotations at a dose of 5 mg/kg, product of Example 2 provoked 364±50 contralateral rotations at a dose of 1 mg/kg and the product of Example 3 provoked 657±205 contralateral rotations at a dose of 0.1 mg/kg.

mice = test: Acute toxicity; format: in vivo; conditions: oral, maximum dose which did not cause mortality
[2] = system: ulcers in the stomachs of rats; test: Antiulcerous activity (Shay ulcers by ligature of pylore); format: in vivo; conditions: oral, about 16 hours after treatment
Source text: The technique used is described by Shay et al [Gastroenterology, Vol. 5 (1945), p. 43]. Ulcers were induced in the stomachs of rats by ligature of pylore. The animals were anesthesized with ether and a longitudinal incision of about 1 cm was made beneath the sternum, the glandular part of the stomach and the duodenum were taken out and a ligature was placed a few mm below the pylore. The muscular surface was left as it was and the skin was sutured by 2 clamps.
The animals received orally immediately after a dispersive or the test product in a volume of 0.5 ml/100 g and were kept without food or water until they were killed by carotidinal bleeding which was about 16 hours after treatment. Before removal of the stomach, a ligature was placed above the […]. The gastric liquid was collected to measure the pH and the stomach was then opened by a large curve, was rinsed with physiological serum and was spead out on millimetric paper for examination with a binocular lens. The gravity of the lesions was macroscopically evaluated on a scale of 0 to 4 for each stomach to determine for each group of rats the average intensity of ulcerations.

T1 sequence (P61169 whole entry): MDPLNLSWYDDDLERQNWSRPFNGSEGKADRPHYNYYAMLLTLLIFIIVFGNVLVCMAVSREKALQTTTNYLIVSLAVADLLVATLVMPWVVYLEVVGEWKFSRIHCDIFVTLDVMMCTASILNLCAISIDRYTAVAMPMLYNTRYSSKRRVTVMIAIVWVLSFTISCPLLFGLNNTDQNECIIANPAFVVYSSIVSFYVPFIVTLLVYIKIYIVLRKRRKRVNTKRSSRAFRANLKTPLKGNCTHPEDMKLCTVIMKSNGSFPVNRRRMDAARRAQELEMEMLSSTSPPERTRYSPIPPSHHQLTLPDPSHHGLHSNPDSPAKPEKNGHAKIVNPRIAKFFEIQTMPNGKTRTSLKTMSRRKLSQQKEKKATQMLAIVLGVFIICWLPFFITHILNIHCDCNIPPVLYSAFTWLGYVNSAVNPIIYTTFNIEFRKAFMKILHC

Structure (SMILES)	fixation to dopaminergic receptors (in words) (dopaminergic receptors)	IC50 (dopaminergic receptors) [µM]	DL0 (mice) [mg/kg]	% of increase of survival time (male mice; dose 5 mg/kg) [%]	% of increase of survival time (male mice; dose 25 mg/kg) [%]	other results
c1cc2c3c(c[nH]c3c1)CC[C@H]1NCCO[C@H]21 (relative stereo) [Example 1, (7a R,S-trans)-4,6,7,7a,8,9,10,11a-octahydro-[1,4]-oxazino [2',3'-4,5]-cyclohept[1,2,3-c,d]-indole hydrochloride]	do fix dopaminergic receptors	10	200			% of increase of survival time (male mice; dose 2 mg/kg): 14%; % of increase of survival time (male mice; dose 10 mg/kg): 51%; % of increase of survival time (male mice; dose 50 mg/kg): 145%; contralateral rotations ([1]; 5 mg/kg): 337±99 contralateral rotations
CN1CCO[C@@H]2c3cccc4[nH]cc(c34)CC[C@H]21 (relative stereo) [Example 2, (7a-R,S-trans) 8-methyl-4,6,7,7a,8,9,10,11a-octahydro-[1,4]-oxazino-[2',3'-4,5]cyclohept[1,2,3-c,d]indole hydrochloride]	do fix dopaminergic receptors	0.95	100	30	64	contralateral rotations ([1]; 1 mg/kg): 364±50 contralateral rotations
CCCN1CCO[C@@H]2c3cccc4[nH]cc(c34)CC[C@H]21 (relative stereo) [Example 3, (7a-R,S-trans)-4,6,7,7a,8,9,10,11a-octahydro-8-propyl-[1,4]-oxazino-[2',3'-4,5]cyclohept[1,2,3-c,d]indole hydrochloride]	do fix dopaminergic receptors	0.27	100	102	86	% of increase of survival time (male mice; dose 1 mg/kg): 3%; % protection against ulceration ([2]; dose 5 mg/kg): 51%; % protection against ulceration ([2]; dose 25 mg/kg): 73%; contralateral rotations ([1]; 0.1 mg/kg): 657±205 contralateral rotations
CCCN1CCO[C@@H]2c3cccc4[nH]c(Br)c(c34)CC[C@H]21 (relative stereo) [Example 4, (7a-R,S-trans) 5-bromo-4,6,7,7a,8,9,10,11a-octahydro-8-propyl-[1,4]-oxazino-[2',3'-4,5]cyclohept[1,2,3-c,d]indole hydrochloride]			> 1000			
CCCN1CCO[C@@H]2c3cccc4c3c(cn4C)CC[C@H]21 (relative stereo) [Example 5, (7a-R,S-trans) 4,6,7,7a,8,9,10,11a-octahydro-4-methyl-8-propyl-[1,4]-oxazino-[2',3'-4,5]cyclohept[1,2,3-c,d]indole hydrochloride]			200			
